Data taken from patent US9169254B2, “Spiroimidazolone derivative” (Chugai Seiyaku Kabushiki Kaisha, priority 2009, dated 2015).

target: T1, human PTH1 receptor (Homo sapiens, UniProt Q03431); experiment: In vitro cAMP signal activity in HKRK-B7 cells (LLC-PK1 cells overexpressing the human PTH1 receptor); assay type: cell-based; details: HKRK-B7 cells; compound at 1×10^−3 M; cAMP produced as percentage of that produced by hPTH(1-34) at 100 nM
T1 sequence (Q03431 27-593): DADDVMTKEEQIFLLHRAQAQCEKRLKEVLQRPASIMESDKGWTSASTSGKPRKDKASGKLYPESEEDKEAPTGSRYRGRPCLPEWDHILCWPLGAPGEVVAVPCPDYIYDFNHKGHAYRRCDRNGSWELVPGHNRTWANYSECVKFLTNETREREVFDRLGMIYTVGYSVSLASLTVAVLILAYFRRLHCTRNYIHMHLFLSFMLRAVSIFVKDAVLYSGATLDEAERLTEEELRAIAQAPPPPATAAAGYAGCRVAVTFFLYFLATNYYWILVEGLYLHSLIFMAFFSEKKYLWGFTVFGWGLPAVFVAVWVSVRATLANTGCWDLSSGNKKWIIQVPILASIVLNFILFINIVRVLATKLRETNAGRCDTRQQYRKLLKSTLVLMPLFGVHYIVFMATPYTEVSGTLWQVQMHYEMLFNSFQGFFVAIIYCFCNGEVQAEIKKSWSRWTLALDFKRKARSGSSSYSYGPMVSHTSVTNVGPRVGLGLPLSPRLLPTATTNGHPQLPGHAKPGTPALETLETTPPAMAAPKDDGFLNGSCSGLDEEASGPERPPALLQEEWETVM

First: Cc1cc(C(=O)N2CCC(OC[C@H](O)CO)CC2)cc(C)c1/C=C/S(=O)(=O)N1CCC2(CC1)N=C(CCCCCCCCC(F)(F)F)NC2=O [Compound 1010, 8-((E)-2-{4-[4-((R)-2,3-Dihydroxy-propoxy)-piperidine-1-carbonyl]-2,6-dimethyl-phenyl}-ethenesulfonyl)-2-(9,9,9-trifluoro-nonyl)-1,3,8-triaza-spiro[4.5]dec-1-en-4-one]
Second: Cc1cc(C(=O)N2CCC(OC[C@H](O)CO)CC2)cc(C)c1/C=C/S(=O)(=O)N1CCC2(CC1)N=C(C1CCC(CCC(F)(F)F)CC1)NC2=O (stereo partly drawn) [Compound 993, 8-((E)-2-{4-[4-((R)-2,3-dihydroxy-propoxy)-piperidine-1-carbonyl]-2,6-dimethyl-phenyl}-ethenesulfonyl)-2-[4-(3,3,3-trifluoro-propyl)-cyclohexyl]-1,3,8-triaza-spiro[4.5]dec-1-en-4-one]
The “cAMP production activity (%)” value of the first is higher: 96% for the first, 64% for the second.

First: Cc1cc(C(=O)N(C)C)ccc1CCS(=O)(=O)N1CCC2(CC1)N=C(C1CCC(C)CC1)NC2=O (stereo not drawn) [Compound 76, 3,N,N-trimethyl-4-{2-[2-(4-methyl-cyclohexyl)-4-oxo-1,3,8-triaza-spiro[4.5]dec-1-ene-8-sulfonyl]-ethyl}-benzamide]
Second: CC(=O)Nc1ccc(CCS(=O)(=O)N2CCC3(CC2)N=C([C@H]2CC[C@@H](C/C=C/F)CC2)NC3=O)c(C)c1 [Compound 1070, N-[4-(2-{2-[4-((E)-3-fluoro-allyl)-cyclohexyl]-4-oxo-1,3,8-triaza-spiro[4.5]dec-1-ene-8-sulfonyl}-ethyl)-3-methyl-phenyl]-acetamide]
The “cAMP production activity (%)” value of the first is higher: 73% for the first, 69% for the second.

Compared with `Cc1cc(C(=O)N(C)C2CCN(C)CC2)cc(C)c1/C=C/S(=O)(=O)N1CCC2(CC1)N=C(c1cccc(C(F)(F)F)c1)NC2=O` [Compound 393, 3,5,N-trimethyl-N-(1-methyl-piperidin-4-yl)-4-{(E)-2-[4-oxo-2-(3-trifluoromethyl-phenyl)-1,3,8-triaza-spiro[4.5]dec-1-ene-8-sulfonyl]-vinyl}-benzamide], `Cc1cc(C(=O)N2CC(O)C2)cc(C)c1/C=C/S(=O)(=O)N1CCC2(CC1)N=C(c1ccc(F)c(OC(F)(F)F)c1)NC2=O` [Compound 1102, 2-(4-Fluoro-3-trifluoromethoxy-phenyl)-8-{(E)-2-[4-(3-hydroxy-azetidine-1-carbonyl)-2,6-dimethyl-phenyl]-ethenesulfonyl}-1,3,8-triaza-spiro[4.5]dec-1-en-4-one] is lower in “cAMP production activity (%)” value: 44% for the first, 10% for the second.

Compared with `Cc1cc(N(C)C(N)=O)cc(Cl)c1/C=C/S(=O)(=O)N1CCC2(CC1)N=C(C1CCC(C)CC1)NC2=O` (stereo not drawn) [Compound 695, 1-(3-Chloro-5-methyl-4-{(E)-2-[2-(4-methyl-cyclohexyl)-4-oxo-1,3,8-triaza-spiro[4.5]dec-1-ene-8-sulfonyl]-vinyl}-phenyl)-1-methyl-urea], `COCc1cc(NC(C)=O)ccc1/C=C/S(=O)(=O)N1CCC2(CC1)N=C(C1CCC(C)CC1)NC2=O` (stereo not drawn) [Compound 512, N-(3-methoxymethyl-4-{(E)-2-[2-(4-methyl-cyclohexyl)-4-oxo-1,3,8-triaza-spiro[4.5]dec-1-ene-8-sulfonyl]-vinyl}-phenyl)-acetamide] is lower in “cAMP production activity (%)” value: 78% for the first, 49% for the second.

Compared with `Cc1cc(C(=O)N(C)C)ccc1CCS(=O)(=O)N1CCC2(CC1)N=C(COc1ccc(F)cc1)NC2=O` [Compound 125, 4-{2-[2-(4-fluoro-phenoxymethyl)-4-oxo-1,3,8-triaza-spiro[4.5]dec-1-ene-8-sulfonyl]-ethyl}-3,N,N-trimethyl-benzamide], `CC(=O)N(c1ccc(CCS(=O)(=O)N2CCC3(CC2)N=C(c2cccc(OC(F)(F)F)c2)NC3=O)c(C)c1)C1CCCC1` [Compound 678, N-Cyclopentyl-N-(3-methyl-4-{2-[4-oxo-2-(3-trifluoromethoxy-phenyl)-1,3,8-triaza-spiro[4.5]dec-1-ene-8-sulfonyl]-ethyl}-phenyl)-acetamide] is higher in “cAMP production activity (%)” value: 62% for the first, 86% for the second.

Compared with `NS(=O)(=O)CCCn1ccc2c(/C=C/S(=O)(=O)N3CCC4(CC3)N=C(C3CCCCC3)NC4=O)cccc21` [Compound 484, 3-{4-[(E)-2-(2-cyclohexyl-4-oxo-1,3,8-triaza-spiro[4.5]dec-1-ene-8-sulfonyl)-vinyl]-indol-1-yl}-propane-1-sulfonic acid amide], `O=C(CO)N1CCCC(C2=NC3(CCN(S(=O)(=O)c4cccc(Cl)c4)CC3)C(=O)N2)C1` (stereo not drawn) [Compound 424, 8-(3-chloro-benzenesulfonyl)-2-[1-(2-hydroxy-acetyl)-piperidin-3-yl]-1,3,8-triaza-spiro[4.5]dec-1-en-4-one] is lower in “cAMP production activity (%)” value: 47% for the first, 2.5% for the second.

Compared with `CCCCCCCCCC1=NC2(CCN(S(=O)(=O)CCc3c(C)cc(C(=O)N4CCC(O)CC4)cc3C)CC2)C(=O)N1` [Compound 984, 8-{2-[4-(4-hydroxy-piperidine-1-carbonyl)-2,6-dimethyl-phenyl]-ethanesulfonyl}-2-nonyl-1,3,8-triaza-spiro[4.5]dec-1-en-4-one], `CCCCCCCCCC1=NC2(CCN(S(=O)(=O)CCc3ccc(C(=O)N4CC[C@@H](O)C4)cc3C)CC2)C(=O)N1` [Compound 979, 8-{2-[4-((R)-3-hydroxy-pyrrolidine-1-carbonyl)-2-methyl-phenyl]-ethanesulfonyl}-2-nonyl-1,3,8-triaza-spiro[4.5]dec-1-en-4-one] is higher in “cAMP production activity (%)” value: 133% for the first, 145% for the second.

`Cc1cc(/C=C/S(=O)(=O)N2CCC3(CC2)N=C(c2cccc(OC(F)(F)F)c2)NC3=O)cc(C)c1OCCC(O)CO` (stereo not drawn) [Compound 601, 8-{(E)-2-[4-(3,4-dihydroxy-butoxy)-3,5-dimethyl-phenyl]-ethenesulfonyl}-2-(3-trifluoromethoxy-phenyl)-1,3,8-triaza-spiro[4.5]dec-1-en-4-one] and `Cc1cc(N(CCO)C(=O)C(C)C)ccc1/C=C/S(=O)(=O)N1CCC2(CC1)N=C(c1cccc(OC(F)(F)F)c1)NC2=O` [Compound 711, N-(2-Hydroxy-ethyl)-N-(3-methyl-4-{(E)-2-[4-oxo-2-(3-trifluoromethoxy-phenyl)-1,3,8-triaza-spiro[4.5]dec-1-ene-8-sulfonyl]-vinyl}-phenyl)-isobutylamide] are the same in “cAMP production activity (%)” value: 64% for the first, 64% for the second.

Going from `Cc1cc(N2C(=O)CNC2=O)ccc1CCS(=O)(=O)N1CCC2(CC1)N=C(c1cccc(OC(F)(F)F)c1)NC2=O` [Compound 792, 3-(3-methyl-4-{2-[4-oxo-2-(3-trifluoromethoxy-phenyl)-1,3,8-triaza-spiro[4.5]dec-1-ene-8-sulfonyl]-ethyl}-phenyl)-imidazolidine-2,4-dione] to `Cc1cc(N(C)C(N)=O)cc(C)c1CC(C)S(=O)(=O)N1CCC2(CC1)N=C(c1cccc(OC(F)(F)F)c1)NC2=O` (stereo not drawn) [Compound 1090, 1-(3,5-Dimethyl-4-{2-[4-oxo-2-(3-trifluoromethoxy-phenyl)-1,3,8-triaza-spiro[4.5]dec-1-ene-8-sulfonyl]-propyl}-phenyl)-1-methyl-urea], the “cAMP production activity (%)” value rises from 110% to 118%.

Compared with `Cc1cc(N(C)C(N)=O)cc(C)c1/C=C/S(=O)(=O)N1CCC2(CC1)N=C(CCCCCCCCCC(=O)O)NC2=O` [Compound 1171, 10-(8-{(E)-2-[2,6-Dimethyl-4-(1-methyl-ureido)-phenyl]-ethenesulfonyl}-4-oxo-1,3,8-triaza-spiro[4.5]dec-1-en-2-yl)-decanoic acid], `Cc1cc(N(C)C(N)=O)cc(C)c1/C=C/[S@TB4](=O)(=O)N1CCC2(CC1)N=C(CCCCCCCCCCCF)NC2=O` [Compound 1118, 1-(4-{(E)-2-[2-(11-fluoro-undecyl)-4-oxo-1,3,8-triaza-spiro[4.5]dec-1-ene-8-sulfonyl]-vinyl}-3,5-dimethyl-phenyl)-1-methyl-urea] is higher in “cAMP production activity (%)” value: 28% for the first, 79% for the second.

Compared with `Cc1cc(N(C)C(N)=O)cc(C)c1CCS(=O)(=O)N1CCC2(CC1)N=C(c1ccc(C(C)(C)C)cc1)NC2=O` [Compound 1030, 1-(4-{2-[2-(4-tert-butyl-phenyl)-4-oxo-1,3,8-triaza-spiro[4.5]dec-1-ene-8-sulfonyl]-ethyl}-3,5-dimethyl-phenyl)-1-methyl-urea], `Cc1cc(N2C(=O)CN(C)C2=O)cc(C)c1CCS(=O)(=O)N1CCC2(CC1)N=C(C1CCC(CCC(F)(F)F)CC1)NC2=O` (stereo not drawn) [Compound 760, 3-[3,5-dimethyl-4-(2-{4-oxo-2-[4-(3,3,3-trifluoro-propyl)-cyclohexyl]-1,3,8-triaza-spiro[4.5]dec-1-ene-8-sulfonyl}-ethyl)-phenyl]-1-methyl-imidazolidine-2,4-dione] is lower in “cAMP production activity (%)” value: 115% for the first, 93% for the second.

First: Cc1cc(C(=O)N2CCC(C)(O)CC2)cc(C)c1/C=C/S(=O)(=O)N1CCC2(CC1)N=C(c1ccc(F)c(C)c1C)NC2=O [Compound 1192, 2-(4-fluoro-2,3-dimethyl-phenyl)-8-{(E)-2-[4-(4-hydroxy-4-methyl-piperidine-1-carbonyl)-2,6-dimethyl-phenyl]-ethenesulfonyl}-1,3,8-triaza-spiro[4.5]dec-1-en-4-one]
Second: Cc1cc(C(=O)N2CCC(C)(O)CC2)cc(C)c1/C=C/S(=O)(=O)N1CCC2(CC1)N=C(c1ccc(F)c(OCCCF)c1)NC2=O [Compound 1215, 2-[4-fluoro-3-(3-fluoro-propoxy)-phenyl]-8-{(E)-2-[4-(4-hydroxy-4-methyl-piperidine-1-carbonyl)-2,6-dimethyl-phenyl}-ethenesulfonyl]-1,3,8-triaza-spiro[4.5]dec-1-en-4-one]
The “cAMP production activity (%)” value of the first is higher: 100% for the first, 74% for the second.
